Data reported in patent US11185077B2, “Attractants for rodents” (priority 2016, dated 2021).

System: house mice, Mus musculus
Assay: Laboratory T-tube bioassay: behavioral responses of mice (first choice, time spent)
Assay type: in vivo
Details: female mice
Text: A laboratory experimental apparatus was constructed to test the behavioral responses of mice to the compositions described herein. The experimental design is depicted in FIG. 4 and includes three clear Plexiglas chambers: release chamber (1: 40 cm×20 cm×30 cm for placement of a mouse at the onset of a bioassay), and response chambers (3a and 3b: each 60 cm×30 cm×40 cm) interconnected by a Pyrex glass T-tube (2; stem: 65 cm long, side arms: 45 cm long, all 10 cm in diameter). Each response chamber housed a test stimulus in a Petri dish (4a, 4b; 3 cm diam.). For each replicate, a single mouse was deprived of food, but not water, for 4-6 h before being placed into chamber 1, which was illuminated by dim red light to facilitate observations of the mouse's position. The mouse was allowed to enter the stem of the T-tube (2) on its own accord in response to test stimuli, which were randomly assigned to response chamber 3a or 3b.
Both response chambers were fitted with a Petri dish (4a, 4b) containing a Whatman #1 filter paper disk (25 mm diam.) treated with a randomly assigned treatment stimulus or control stimulus. For each bioassay, a single mouse was tested and the following data were recorded: (1) the treatment or control chamber the mouse entered first with all four paws (“first-choice data”); and (2) the position of the mouse at each of 30 30-sec intervals after its first entry into the T-tube. Position data were then used to calculate the proportion of time a mouse spent in the treatment or control chamber (“time-spent data”).
Following each replicate, the chambers and T-tube were cleaned with a Percept® disinfectant detergent (Virox Technologies Inc. Mississaugua ON L5N 5M4, Canada) and wiped with 70% ethanol.
First-choice data and the time spent in a trap box quadrant were analyzed using a χ^2 test with Yates' correction for continuity (α=0.05) and the Student's t-test (α=0.05), respectively.
In Experiment 5, the laboratory experimental design of FIG. 4 was used to evaluate the responses of female mice to synthetic androstenone. For Experiment 5, the treatment stimulus consisted of filter paper treated with 4 μg of synthetic androstenone (see Experiments 1 and 2), and the control stimulus consisted of filter paper treated with the 50 μl of ether without androstenone.
In Experiment 6, the laboratory experimental design of FIG. 4 was used to evaluate the responses of male mice to blends of synthetic progesterone and estrogen. For Experiment 6, the treatment stimulus consisted of filter paper treated with a 4-μg blend of the synthetic hormones progesterone and estrogen formulated in 50 μl of ether at a ratio of 100:1 and a control stimulus which consisted of filter paper treated with 50 μl of ether.
In Experiments 9 to 11, the laboratory experimental design of FIG. 4 was used to evaluate the responses of male mice to synthetic progesterone and estrogen. For the Experiments, the treatment stimulus consisted of filter paper treated with a blend of the synthetic progesterone (50 ng) and estrogen (25 ng) (hereinafter “synthetic hormone blend”) (Experiment 9), progesterone alone (75 ng) (Experiment 10) or estrogen alone (75 ng) (Experiment 11) formulated in 50 μl ether. The control stimulus consisted of filter paper treated with 50 μl of ether for each of Experiments 9 to 11.
Experiment 12 used the laboratory experimental apparatus of FIG. 4 to test choices of female mice between filter paper treated with 75 ng of synthetic testosterone (the treatment stimulus) formulated in 50 μl of ether and control filter paper treated with 50 μl of ether. Experiment 13 was identical to Experiment 12 except that the treatment stimulus consisted of filter paper treated with 75 ng of synthetic androstenone.

[1] = Experiment 12, 75 ng synthetic testosterone
[2] = Experiment 5, 4 μg synthetic androstenone
[3] = Experiment 13, 75 ng synthetic androstenone

Row | SMILES | first entry into baited chamber vs control chamber [1] | preference in time spent for the treated chamber over control [1] | time spent in baited chamber vs control chamber [1] | effect on female mice (Experiment 12, 75 ng synthetic testosterone in 50 μl ether vs ether) | first entry into baited response chamber vs control chamber [2] | time spent in response chamber with stimulus vs control chamber [2] | effect on female mice (Experiment 5, 4 μg synthetic androstenone vs 50 μl ether) | first entry into baited chamber vs control chamber [3] | responses by female mice compared with testosterone [3] | time spent in baited chamber vs control chamber [3]
1 | C[C@]12CC[C@H]3[C@@H](CCC4=CC(=O)CC[C@@]43C)[C@@H]1CC[C@@H]2O [testosterone, (8R,9S,10R,13S,14S,17S)-17-hydroxy-10,13-dimethyl-1,2,6,7,8,9,11,12,14,15,16,17-dodecahydrocyclopenta[a]phenanthren-3-one, reference compound] | significantly more often | over threefold preference | significantly more time | very positive effect |  |  |  |  |  | 
2 | C[C@]12CCC(=O)C[C@@H]1CC[C@@H]1[C@@H]2CC[C@]2(C)C=CC[C@@H]12 [androstenone, 5α-androst-16-en-3-one] |  |  |  |  | as often as | significantly more time | positive effect | as often as | much weaker | slightly more time
